10 compounds from PubChem BioAssay (NCI) can be followed below.

Test systems include 786-0 renal; HCT-15 colon; KM12 colon; MCF7 breast; MDA-N; MOLT-4 leukemia; NCI-H460 lung; OVCAR-5 ovarian; SNB-19 CNS; T-47D breast; UACC-257 melanoma; UO-31 renal.
What all share (experiment): NCI-60 cell line screen, 48 h

Where “and” joins values, the source holds several entries; their conditions need not be identical. Equal entries are not always repeated.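 How tested: cells in 96-well plates exposed to compound for 48 hours at five concentrations. Abbreviation: GI50, concentration required for 50% inhibition of growth. TGI marks complete inhibition of growth.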

On to `Cn1c(O)c(C=Nc2ccccc2Cl)c(=O)n(C)c1=O`, for which the TGI was 37.7 µM in the experiment on 786-0 renal; 41.4 µM in the experiment with HCT-15 colon; > 100 µM with KM12 colon; > 100 µM in the experiment with MCF7 breast; > 100 µM in the experiment with MDA-N; 61.5 µM in the experiment with MOLT-4 leukemia. The TGI was 32.8 µM in the experiment with NCI-H460 lung; 63.2 µM in the experiment with OVCAR-5 ovarian; 78.4 µM in the experiment with SNB-19 CNS; 65.5 µM with T-47D breast; > 100 µM with UACC-257 melanoma; > 100 µM with UO-31 renal.
`COc1ccc(C(=O)/C=C/c2cc(O)c(O)cc2F)c(OC)c1`: the TGI in the experiment with 786-0 renal is 22.9 µM; in the experiment with HCT-15 colon it was > 40.9 µM; in the experiment with KM12 colon it was > 79.9 µM; in the experiment with MCF7 breast it was 13.9 µM; in the experiment on MDA-N, 53.4 µM; with MOLT-4 leukemia it was 45.1 µM. Further, the TGI is 17.7 µM in the experiment with NCI-H460 lung; 33.5 µM in the experiment on OVCAR-5 ovarian; 24.9 µM with SNB-19 CNS; > 80.3 µM in the experiment on T-47D breast; 22.7 µM in the experiment on UACC-257 melanoma; 30.8 µM in the experiment with UO-31 renal.
Turning to `C=CCC(C(=O)Nc1cccc2[nH]cnc12)C(=O)OCC` (stereo not given), the TGI in the experiment on 786-0 renal, in the experiment with HCT-15 colon, with KM12 colon, with MCF7 breast, in the experiment with MDA-N and in the experiment with MOLT-4 leukemia was > 100 µM in each case. For the same compound, the TGI with NCI-H460 lung, in the experiment with OVCAR-5 ovarian, in the experiment on SNB-19 CNS, with T-47D breast, in the experiment with UACC-257 melanoma and with UO-31 renal was > 100 µM each time.
Take `Oc1cc(Br)cc2cc(Cl)cnc12`: the TGI in the experiment with 786-0 renal was 38.8 µM; with HCT-15 colon it was > 100 µM; with KM12 colon, > 42.7 µM; in the experiment on MCF7 breast, 23.8 µM; with MDA-N it was > 100 µM; with MOLT-4 leukemia, 7.49 µM. Also, the TGI in the experiment with NCI-H460 lung was 32.6 µM; in the experiment with OVCAR-5 ovarian, > 100 µM; with SNB-19 CNS, > 100 µM; in the experiment on T-47D breast, 16.7 µM; with UACC-257 melanoma, > 100 µM; with UO-31 renal it was 17.4 µM.
Regarding `Cc1c(C(=O)O)n2cnnc2c2ccccc12`, the TGI in the experiment on 786-0 renal, in the experiment on HCT-15 colon, with KM12 colon, in the experiment with MCF7 breast, in the experiment on MDA-N and with MOLT-4 leukemia was > 100 µM in each case. Also, the TGI in the experiment on NCI-H460 lung, with OVCAR-5 ovarian, in the experiment on SNB-19 CNS, in the experiment on T-47D breast, in the experiment with UACC-257 melanoma and in the experiment with UO-31 renal was > 100 µM throughout.
`Brc1ccc2c(-c3csc(-c4c[nH]c5ccccc45)n3)c[nH]c2c1`: the TGI in the experiment on 786-0 renal stood at 33.8 µM; in the experiment with HCT-15 colon, 28.5 µM; in the experiment on KM12 colon, 34.7 µM; with MCF7 breast, 37.1 µM; in the experiment with MDA-N, 39.8 µM; in the experiment with MOLT-4 leukemia, 36.3 µM. Also, the TGI with NCI-H460 lung was found to be 34.4 µM; in the experiment on OVCAR-5 ovarian, 32.7 µM; in the experiment on SNB-19 CNS, 31.7 µM; with T-47D breast it was 66.4 µM; in the experiment with UACC-257 melanoma it was 50.7 µM; with UO-31 renal it was 27.6 µM. Besides, the GI50 with HCT-15 colon was 15.2 µM; in the experiment with MCF7 breast, 16.7 µM; in the experiment with MDA-N, 19.2 µM; in the experiment with MOLT-4 leukemia, 19.9 µM.
Consider `O=[N+]([O-])C(Cl)=C/C(=C(\Cl)SCc1ccccc1)[N+](=O)[O-]`, for which the TGI is 71.2 µM in the experiment with 786-0 renal; 35.5 µM with HCT-15 colon; > 100 µM with KM12 colon; > 100 µM in the experiment on MCF7 breast; 69.8 µM with MDA-N; 46.9 µM in the experiment with MOLT-4 leukemia. In addition, the TGI with NCI-H460 lung was > 100 µM; in the experiment on OVCAR-5 ovarian, 52.4 µM; with SNB-19 CNS it was > 100 µM; in the experiment with T-47D breast, 40.2 µM; with UACC-257 melanoma, 79.7 µM; in the experiment on UO-31 renal it was 40.2 µM.
As for `C=C(C(=O)O[C@H]1C(=O)C2=C(C)CCC3C(=C)C(=O)O[C@@H]3C2[C@]1(C)O)C1CC[C@]2(C)CCCC(=C)[C@H]2C1` (stereo not given in full), the TGI in the experiment with 786-0 renal is 4.29 µM; in the experiment with HCT-15 colon, 8.77 µM and 12.8 µM; in the experiment on KM12 colon it was 20.5 µM; in the experiment with MCF7 breast, 8.81 µM and 10.8 µM; in the experiment with MDA-N, 11.6 µM and 8.45 µM; with MOLT-4 leukemia, 5.38 µM. Besides, the TGI in the experiment on NCI-H460 lung is 10.4 µM and 11.1 µM; with OVCAR-5 ovarian it was 25 µM and 41 µM; in the experiment on SNB-19 CNS, 26.6 µM; in the experiment with T-47D breast, 13.1 µM and 5.03 µM; in the experiment on UACC-257 melanoma, 14 µM and 12 µM; in the experiment on UO-31 renal, 12 µM and 16.5 µM. The GI50 in the experiment with HCT-15 colon is 1.92 µM; in the experiment on MCF7 breast, 1.75 µM; in the experiment with MDA-N, 0.117 µM; with NCI-H460 lung, 0.0398 µM; in the experiment with OVCAR-5 ovarian, 9.64 µM; in the experiment with T-47D breast, 2.06 µM.
With `NC(N)=NCCCC(NC(=O)OCCCCn1ccc(N)nc1=O)C(=O)O` (stereo not given), the TGI with 786-0 renal, in the experiment on HCT-15 colon, in the experiment on KM12 colon, in the experiment with MCF7 breast, with MDA-N and in the experiment on MOLT-4 leukemia was > 100 µM throughout. Also, the TGI in the experiment on NCI-H460 lung, in the experiment on OVCAR-5 ovarian, in the experiment on SNB-19 CNS, in the experiment on T-47D breast, in the experiment with UACC-257 melanoma and in the experiment on UO-31 renal was > 100 µM each time.
`c1ccc(CN2CCN3CCN(CC2)CCN(Cc2ccccc2)CC3)cc1`: the TGI in the experiment on 786-0 renal was 18.2 µM; in the experiment with HCT-15 colon it was > 88.8 µM; in the experiment on KM12 colon, 14.6 µM; in the experiment on MCF7 breast, 18.8 µM; with MDA-N, 12.2 µM; with MOLT-4 leukemia it was > 56.7 µM. Moreover, the TGI in the experiment on NCI-H460 lung was 19.3 µM; with OVCAR-5 ovarian, 28.6 µM; in the experiment on SNB-19 CNS, 18.7 µM; in the experiment on T-47D breast it was 35.8 µM; in the experiment on UACC-257 melanoma, 8.8 µM; in the experiment on UO-31 renal, > 81.5 µM.
